# Experiments:
# [1] = biological target: μ-opioid receptors (Homo sapiens (Human), UniProt P35372); assay: μ-opioid receptor [35S]GTPγS functional assay, U-2 OS cells; assay type: biochemical; details: μ GTP; for EC50: read-out: Activity Response μ EC50 (nM) [mean ± SEM]; for Emax: relative to DAMGO, read-out: Activity Response μ Emax (%)
# Procedure: [^35S]GTPγS functional assays were conducted using freshly thawed μ-receptor membranes prepared from a cell line expressing recombinant μ opioid receptor in a HEK-293, CHO or U-2 OS cell background or purchased from a commercial source (Perkin Elmer, Shelton, Conn.; or DiscovRx, Fremont, Calif.). Assay reactions were prepared by sequentially adding the following reagents to binding buffer (100 mM NaCl, 10 mM MgCl2, 20 mM HEPES, pH 7.4) on ice (final concentrations indicated): membrane protein (0.026 mg/mL), saponin ([…]), GDP ([…]) and [^35S]GTPγS (0.20 nM; Perkin Elmer, Shelton, Conn.). The prepared membrane solution (190 μl/well) was transferred to 96-shallow well polypropylene plates containing 10 μl of 20× concentrated stock solutions of the agonist [D-Ala^2, N-methyl-Phe^4 Gly-ol^5]-enkephalin (DAMGO) prepared in dimethyl sulfoxide (DMSO). Plates were incubated for 30 min at about 25° C. with shaking. Reactions were terminated by rapid filtration onto 96-well Unifilter GF/B filter plates (Perkin Elmer, Shelton, Conn.) using a 96-well tissue harvester (Perkin Elmer, Shelton, Conn.) followed by three filtration washes with 200 μl of ice-cold wash buffer (10 mM NaH2PO4, 10 mM Na2HPO4, pH 7.4). Filter plates were subsequently dried at 50° C. for 2-3 hours. BetaScint scintillation cocktail (Perkin Elmer, Shelton, Conn.) was added (50 μl/well) and plates were counted using a Packard Top-Count for 1 min/well. Data were analyzed using the sigmoidal dose-response curve fitting functions in GraphPad PRISM v. 3.0, or an in-house function for non-linear, sigmoidal dose-response curve-fitting.
# μ GTP EC50 is the concentration of a compound providing 50% of the maximal response for the compound at a μ-opioid receptor.
# μ GTP Emax (%) is the maximal effect elicited by a compound relative to the effect elicited by DAMGO, a standard μ agonist. Generally, the μ GTP Emax (%) value measures the efficacy of a compound to treat or prevent pain or other Conditions.
# (§1) The following tables provide results on the efficacy of binding and activity response of exemplified Compounds of the Invention at the μ- and κ-opioid receptors. In TABLE 3, binding affinity of certain Compounds of the Invention to the μ- and κ-opioid receptors was determined as described above. In TABLE 4, activity response of certain Compounds of the Invention to the μ- and κ-opioid receptors was determined as described above for functional assays using HEK-293 cells. In TABLE 5, activity response of certain Compounds of the Invention to the μ- and κ-opioid receptors was determined as described above using U-2 OS cells.
# [2] = biological target: κ opioid receptor (Homo sapiens (Human), UniProt P41145); assay: κ-opioid receptor [35S]GTPγS functional assay, U-2 OS cells; assay type: biochemical; details: κ GTP; for EC50: read-out: Activity Response κ EC50 (nM) [mean ± SEM]; for Emax: relative to U69,593, read-out: Activity Response κ Emax (%)
# Procedure: Membranes from HEK-293 cells, CHO or U-2 OS cells expressing the recombinant human kappa opioid receptor (κ) were prepared by lysing cells in ice cold hypotonic buffer (2.5 mM MgCl2, 50 mM HEPES, pH 7.4) (10 mL/10 cm dish) followed by homogenization with a tissue grinder/Teflon pestle. Membranes were collected by centrifugation at 30,000×g for 15 min at 4° C. and pellets were resuspended in hypotonic buffer to a final concentration of 1-3 mg/mL. Protein concentrations were determined using the BioRad protein assay reagent with bovine serum albumen as standard. Aliquots of κ receptor membranes were stored at −80° C.
# Functional [^35S]GTPγS binding assays were conducted as follows. κ opioid receptor membrane solution was prepared by sequentially adding final concentrations of 0.026 μg/μl κ membrane protein (in-house), 10 μg/mL saponin, 3 μM GDP and 0.20 nM [^35S]GTPγS to binding buffer (100 mM NaCl, 10 mM MgCl2, 20 mM HEPES, pH 7.4) on ice. The prepared membrane solution (190 μl/well) was transferred to 96-shallow well polypropylene plates containing 10 μl of 20× concentrated stock solutions of agonist prepared in DMSO. Plates were incubated for 30 min at a temperature of about 25° C. with shaking. Reactions were terminated by rapid filtration onto 96-well Unifilter GF/B filter plates (Perkin Elmer, Shelton, Conn.) using a 96-well tissue harvester (Packard) and followed by three filtration washes with 200 μl ice-cold binding buffer (10 mM NaH2PO4, 10 mM Na2HPO4, pH 7.4). Filter plates were subsequently dried at 50° C. for 2-3 hours. Fifty μl/well scintillation cocktail (Perkin Elmer, Shelton, Conn.) was added and plates were counted in a Packard Top-Count for 1 min/well.
# κ GTP EC50 is the concentration of a compound providing 50% of the maximal response for the compound at a κ receptor.
# κ GTP Emax (%) is the maximal effect elicited by a compound relative to the effect elicited by U69,593.
# as §1, with “In” for “The following tables provide results on the efficacy of binding and activity response of exemplified Compounds of the Invention at the μ- and κ-opioid receptors. In”
Compound,EC50 [1] [nM],Emax [1] [%],EC50 [2] [nM],Emax [2] [%]
"CC[C@H](C)C(=O)N[C@H]1C[C@@]2(O)[C@H]3Cc4ccc(O)cc4[C@@]2(CCN3CC2CC2)CC1=O [Compound 37, (S)-N-((4bR,7S,8aS,9R)-11-(cyclopropylmethyl)-3,8a-dihydroxy-6-oxo-6,7,8,8a,9,10-hexahydro-5H-9,4b-(epiminoethano)phenanthren-7-yl)-2-methylbutanamide]",> 200000,6 ± 1.53,42.1 ± 7.56,71.3 ± 5.7
"O=C(N[C@H]1C[C@@]2(O)[C@H]3Cc4ccc(O)cc4[C@@]2(CCN3CC2CC2)CC1=O)C1CCCCC1 [Compound 38, N-((4bR,7S,8aS,9R)-11-(cyclopropylmethyl)-3,8a-dihydroxy-6-oxo-6,7,8,8a,9,10-hexahydro-5H-9,4b-(epiminoethano)phenanthren-7-yl)cyclohexanecarboxamide]",10.3 ± 1.72,40.3 ± 1.45,2.3 ± 0.25,95.3 ± 5.21
"COc1ccc2c(c1)[C@]13CCN(C)[C@H](C2)[C@]1(O)C[C@H](CCOCc1ccccc1)C(=O)C3 [Compound 50, (4bR,7S,8aS,9R)-7-(2-(benzyloxy)ethyl)-8a-hydroxy-3-methoxy-11-methyl-8,8a,9,10-tetrahydro-5H-9,4b-(epiminoethano)phenanthren-6(7H)-one]",148 ± 10.4,102 ± 1.67,7900 ± 707,74 ± 5.29
"O=C1C[C@]23CCN(CC4CC4)[C@H](Cc4ccc(OCc5ccccc5)cc42)[C@]3(O)C[C@@H]1CCO [Compound 58, (4bR,7S,8aS,9R)-3-(benzyloxy)-11-(cyclopropylmethyl)-8a-hydroxy-7-(2-hydroxyethyl)-8,8a,9,10-tetrahydro-5H-9,4b-(epiminoethano)phenanthren-6(7H)-one]",787 ± 242,43.7 ± 3.93,839 ± 9.9,96 ± 6.35
"CCOC(=O)C[C@H]1C[C@@]2(O)[C@H]3Cc4ccc(OC)cc4[C@@]2(CCN3C)CC1=O [Compound 59, ethyl 2-((4bR,7R,8aS,9R)-8a-hydroxy-3-methoxy-11-methyl-6-oxo-6,7,8,8a,9,10-hexahydro-5H-9,4b-(epiminoethano)phenanthren-7-yl)acetate]",11500 ± 903,100 ± 4.62,> 200000,59 ± 1.53
"CN1CC[C@]23CC(=O)[C@@H](CC(=O)O)C[C@@]2(O)[C@H]1Cc1ccc(O)cc13 [Compound 61, 2-((4bR,7R,8aS,9R)-3,8a-dihydroxy-11-methyl-6-oxo-6,7,8,8a,9,10-hexahydro-5H-9,4b-(epiminoethano)phenanthren-7-yl)acetic acid]",466 ± 81,77.3 ± 2.03,963 ± 83,90 ± 10
"COc1ccc2c(c1)[C@]13CCN(CC4CC4)[C@H](C2)[C@]1(O)C/C(=C\CC(C)C)C(=O)C3 [Compound 62, (4bR,8aS,9R,E)-11-(cyclopropylmethyl)-8a-hydroxy-3-methoxy-7-(3-methylbutylidene)-8,8a,9,10-tetrahydro-5H-9,4b-(epiminoethano)phenanthren-6(7H)-one]",> 200000,27.5,3070 ± 233,62.7 ± 4.37
"O=C1C[C@]23CCN(CC4CC4)[C@H](Cc4ccc(O)cc42)[C@]3(O)C[C@@H]1CC1CCCC1 [Compound 65, (4bR,7S,8aS,9R)-7-(cyclopentylmethyl)-11-(cyclopropylmethyl)-3,8a-dihydroxy-8,8a,9,10-tetrahydro-5H-9,4b-(epiminoethano)phenanthren-6(7H)-one]",> 200000,4,2.57 ± 0.24,101 ± 5.51
"CCC(C)C[C@H]1C[C@@]2(O)[C@H]3Cc4ccc(O)cc4[C@@]2(CCN3CC2CC2)CC1=O (stereo partly drawn) [Compound 66, (4bR,7S,8aS,9R)-11-(cyclopropylmethyl)-3,8a-dihydroxy-7-(2-methylbutyl)-8,8a,9,10-tetrahydro-5H-9,4b-(epiminoethano)phenanthren-6(7H)-one]",> 200000,2.5,7.57 ± 1.14,102 ± 1.33
"CCCC[C@H]1C[C@@]2(O)[C@H]3Cc4ccc(O)cc4[C@@]2(CCN3CC2CC2)CC1=O [Compound 67, (4bR,7S,8aS,9R)-7-butyl-11-(cyclopropylmethyl)-3,8a-dihydroxy-8,8a,9,10-tetrahydro-5H-9,4b-(epiminoethano)phenanthren-6(7H)-one]",> 200000,2,3 ± 0.12,101 ± 1.73
"CC(C)(C)C[C@H]1C[C@@]2(O)[C@H]3Cc4ccc(O)cc4[C@@]2(CCN3CC2CC2)CC1=O [Compound 68, (4bR,7S,8aS,9R)-11-(cyclopropylmethyl)-3,8a-dihydroxy-7-neopentyl-8,8a,9,10-tetrahydro-5H-9,4b-(epiminoethano)phenanthren-6(7H)-one]",> 200000,3,20.5 ± 0.4,69 ± 3.21
"CC(C)C[C@H]1C[C@@]2(O)[C@H]3Cc4ccc(O)cc4[C@@]2(CCN3CC2CC2)CC1=O [Compound 69, (4bR,7S,8aS,9R)-11-(cyclopropylmethyl)-3,8a-dihydroxy-7-isobutyl-8,8a,9,10-tetrahydro-5H-9,4b-(epiminoethano)phenanthren-6(7H)-one]",> 200000,2,9.52 ± 1.41,95.2 ± 1.89
"O=C1C[C@]23CCN(CC4CC4)[C@H](Cc4ccc(O)cc42)[C@]3(O)C[C@@H]1CC1CCCCC1 [Compound 70, (4bR,7S,8aS,9R)-7-(cyclohexylmethyl)-11-(cyclopropylmethyl)-3,8a-dihydroxy-8,8a,9,10-tetrahydro-5H-9,4b-(epiminoethano)phenanthren-6(7H)-one]",> 200000,3.5,4.01 ± 0.47,106 ± 3.8
"O=C1C[C@]23CCN(CC4CC4)[C@H](Cc4ccc(O)cc42)[C@]3(O)C[C@@H]1Cc1ccccc1 [Compound 71, (4bR,7S,8aS,9R)-7-benzyl-11-(cyclopropylmethyl)-3,8a-dihydroxy-8,8a,9,10-tetrahydro-5H-9,4b-(epiminoethano)phenanthren-6(7H)-one]",6.76 ± 1.73,17.7 ± 0.88,5.6 ± 0.72,109 ± 5.45
"C[C@H](NC(=O)C[C@H]1C[C@@]2(O)[C@H]3Cc4ccc(O)cc4[C@@]2(CCN3C)CC1=O)C(=O)O [Compound 75, (2-((4bR,7R,8aS,9R)-3,8a-dihydroxy-11-methyl-6-oxo-6,7,8,8a,9,10-hexahydro-5H-9,4b-(epiminoethano)phenanthren-7-yl)acetyl)-L-alanine]",1150 ± 103,95 ± 1.53,16600 ± 1190,66.7 ± 1.2

# — patent US9388162B2, “Substituted morphinans and the use thereof” (Purdue Pharma L.P., priority 2012, dated 2016)
